Results taken from US8450352B2, “Thiazole compounds and their use for inhibiting phosphodiesterase 4, TNF-α, and IL-4” (Otsuka Pharmaceutical Co., Ltd., priority 2004, dated 2013).
Structures can show the parent of a compound that is named as a salt.

biological target: T1, human PDE4D (HPDE4D) (Homo sapiens, UniProt Q08499); experiment: Confirmatory test for phosphodiesterase (PDE) 4 inhibitory activity; format: biochemical; conditions: concentration that inhibits the PDE4 activity by 50%; PDE4D enzyme solution from transfected COS-7 cells, [3H]cAMP substrate
T1 construct: made in house; host or cells: COS-7 cells (African green monkey kidney), transient transfection; soluble supernatant of the homogenate
Description: Confirmatory Test for Phosphodiesterase (PDE) 4 Inhibitory Activity
(1) Mass Preparation of Plasmids
Plasmids containing genes coding for human PDE4D (HPDE4D) (stored in Otsuka America Pharmaceutical, Inc., Maryland Research Laboratories) were transformed into Escherichia coli, and mass cultured. The plasmids were then purified using EndoFree™ Plasmid Mix Kit (Qiagen).
(2) Mass expression and purification of PDE4D
African green monkey kidney-derived COS-7 cells (RCB 0539) were subcultured in a DMEM medium containing 100 units/ml penicillin, […] streptomycin and 10% FBS. The plasmids prepared in (1) were transfected into the cells, using LipofectAMINE™ 2000 Reagent (hereinafter referred to as “LF2000”, a product of Invitroge), according to the attached protocol. For comparison, pcDNA3.1 was transfected as a control vector. The COS-7 cells were inoculated into 10 cm diameter petri dishes on the day before transfection, so that the cells reached 90% confluence on the day of transfection. Twelve micrograms of the plasmids diluted with 0.9 ml of OPTI-MEM I (Invitrogen) (a plasmid solution; Solution A) and 30 μl of LF2000 diluted with 0.9 ml of OPTI-MEM I (a LF2000 solution; Solution B) were prepared per petri dish, and allowed to stand at room temperature for 5 minutes. Solutions A and B were then mixed together and allowed to stand at room temperature for 20 minutes. The mixture was added to the cultured cells, and incubation was performed overnight at 37° C. in an atmosphere of 5% CO2. The culture medium was changed on the following day, incubation was continued overnight, and the cells were collected by the following procedure. First, the cells were washed once with PBS (Sigma), and 2 ml of Trypsin-EDTA solution (Sigma) was added per petri dish, spread over the dish and removed. The cells were then allowed to stand at 37° C. for 2 to 3 minutes, separated from the petri dish and suspended in a medium. The suspension was placed in a centrifuge tube, and centrifuged at 200×g and 4° C. for 5 minutes. The supernatant was then removed. The cells were further washed with PBS and stored at −80° C. A KHEM buffer (50 mM Hepes, 50 mM KCl, 10 mM EGTA, 1.92 mM MgCl2, pH 7.2) containing 1 mM DTT, 40 μg/ml PMST, 156 μg/ml benzamidine, 1 μg/ml apotinin, 1 μg/ml leupeptin, 1 μg/ml pepstatin A, and 1 μg/ml antipain was added to the cells that had been stored, and the resulting mixture was placed in a glass homogenizer and homogenized on ice. The cell suspension was centrifuged at 100×g and 4° C. for 5 minutes, and the supernatant was further centrifuged at 100,000×g for 1 hour. Thereafter, the supernatant was dispensed into new tubes as a PDE4D enzyme solution, and stored in an ultra-low-temperature freezer. The protein concentration of the PDE4D enzyme solution was then measured.
(3) Determination of Dilution Factor of PDE4D Enzyme Solution
The PDE4D enzyme solution prepared in (2) was diluted 10-, 25-, 50-, 100-, 200-, 400- and 800-fold with 20 mM Tris-HCl (pH 7.4), and the PDE4D activities of the diluted enzyme solutions were measured by the method described in (4) to determine the optimum dilution factor to obtain a PDE4D enzyme solution in which degraded cAMP constituted 10 to 30% of the total cAMP.
(4) Measurement of PDE4D Inhibitory Activity
The necessary amount of each test substance was weighed out and dissolved in 100% DMSO to a concentration of 10 mM. The resulting solutions were stored in a freezer as test substance stock solutions. Before the inhibitory activity measurement, the stock solutions were melted, diluted 2-fold with 100% DMSO to a concentration of 5 mM, and further diluted with 100% DMSO to obtain test substance solutions with 10 graded concentrations. Each test substance solution was added to a 1.2 ml tube containing 23 μl of 20 mM Tris-HCl (pH 7.4). […]

T1 sequence (Q08499 whole entry): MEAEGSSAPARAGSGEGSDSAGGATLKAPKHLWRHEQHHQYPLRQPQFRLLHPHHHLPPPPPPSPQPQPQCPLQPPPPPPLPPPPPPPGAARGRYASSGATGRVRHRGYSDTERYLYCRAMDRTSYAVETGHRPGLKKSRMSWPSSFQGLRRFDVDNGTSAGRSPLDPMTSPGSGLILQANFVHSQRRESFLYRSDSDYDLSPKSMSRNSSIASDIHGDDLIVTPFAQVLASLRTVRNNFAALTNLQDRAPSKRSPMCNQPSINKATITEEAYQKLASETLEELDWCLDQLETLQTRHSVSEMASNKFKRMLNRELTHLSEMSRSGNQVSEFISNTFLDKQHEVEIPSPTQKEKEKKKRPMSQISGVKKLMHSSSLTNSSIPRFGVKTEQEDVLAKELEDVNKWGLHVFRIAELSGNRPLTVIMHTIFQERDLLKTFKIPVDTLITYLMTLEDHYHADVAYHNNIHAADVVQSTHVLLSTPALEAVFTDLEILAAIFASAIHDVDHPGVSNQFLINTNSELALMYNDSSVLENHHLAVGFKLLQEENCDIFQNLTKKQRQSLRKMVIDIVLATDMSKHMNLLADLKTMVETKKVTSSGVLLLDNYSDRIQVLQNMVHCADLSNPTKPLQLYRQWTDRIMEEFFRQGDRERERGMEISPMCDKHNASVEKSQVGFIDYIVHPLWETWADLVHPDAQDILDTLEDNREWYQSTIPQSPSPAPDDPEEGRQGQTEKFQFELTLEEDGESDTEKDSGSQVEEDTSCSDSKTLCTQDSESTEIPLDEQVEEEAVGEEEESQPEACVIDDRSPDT

IC50	SMILES
0.2 nM	CCOc1ccc(-c2nc(CCC(=O)c3ncccc3OCC)cs2)cc1OCC [Example 87, 3-[2-(3,4-diethoxyphenyl)thiazole-4-yl]-1-(3-ethoxypyridine-2-yl)-1-propanone]
6.6 nM	CCOc1ccc(-c2nc(CCC(O)c3ncccc3OC)cs2)cc1OCC (centres unmarked) [Example 187, 3-[2-(3,4-diethoxyphenyl)thiazole-4-yl]-1-(3-methoxypyridine-2-yl)-1-propanol dihydrochloride]

test system: not given; experiment: not given; conditions: not given

melting point	SMILES
142 to 143 °C	CCOc1ccc(-c2nc(/C=C/C(=O)c3ccccc3[N+](=O)[O-])cs2)cc1OCC [Example 27]
78.2 to 79 °C	CCOc1ccc(-c2nc(CCC(O)c3ccccc3OC)cs2)cc1OCC (centres unmarked) [Example 186, 3-[2-(3,4-diethoxyphenyl)thiazole-4-yl]-1-(2-methoxyphenyl)-1-propanol]
116 to 121 °C	CCOc1ccc(-c2nc(/C=C/C(=O)c3ccc(F)cc3)cs2)cc1OCC [Example 25]
66.1 to 67.9 °C	CCOc1ccc(-c2nc(CCC(=O)c3ccccc3Br)cs2)cc1OCC [Example 103]
144.5 to 146 °C	CCOc1ccc(-c2nc(/C=C/C(=O)c3cccc(O)c3)cs2)cc1OCC [Example 16]
227.4 to 228 °C	COc1ccc(-c2nc(/C=C/C(=O)c3ccc(O)c(C(=O)O)c3)cs2)cc1OC [Example 39]
195 to 196 °C	CCOc1ccc(-c2nc(/C=C/C(=O)c3ccc(O)c(C(=O)O)c3)cs2)cc1OCC [Example 19]
165 to 168 °C	CCOc1ccc(-c2nc(/C=C/C(=O)c3cc(Cl)c(N)c(Cl)c3)cs2)cc1OCC (as salt: hydrochloride) [Example 12]
141.3 to 142.4 °C	CCOc1ccc(C(=O)CCc2csc(-c3ccc(OC)c(OC)c3)n2)cc1OCC [Example 93]
126 to 127 °C	CCOc1ccc(-c2nc(/C=C/C(=O)c3ccccc3O)cs2)cc1OCC (as salt: hydrobromid) [Example 15]
97.8 to 98.5 °C	CCOc1ccc(-c2nc(CCC(=O)c3cc(OC)ccc3OC)cs2)cc1OCC [Example 95]
152 to 153 °C	CCOc1ccc(-c2nc(/C=C/C(=O)c3ccc(OC)c(OC)c3)cs2)cc1OCC [Example 13]
64.4 to 65.1 °C	CCOc1ccc(-c2nc(CCC(=O)c3ccccc3Cl)cs2)cc1OCC [Example 104]
164 to 168 °C	COc1ccc(-c2nc(/C=C/C(=O)c3cc(O)cc(O)c3)cs2)cc1OC (as salt: hydrochloride) [Example 6]
174 to 177 °C	COc1ccc(-c2nc(/C=C/C(=O)c3ccc(O)cc3)cs2)cc1OC [Example 37]
128 to 129 °C	CCOc1ccc(-c2nc(/C=C/C(=O)c3ccc(C(C)=O)cc3)cs2)cc1OCC [Example 23]
130 to 135 °C	CCOc1ccc(C(=O)/C=C/c2csc(-c3ccc(OCC)c(OCC)c3)n2)cc1 [Example 31]
155 to 156 °C	CCOc1ccc(-c2nc(/C=C/C(=O)c3cc(OC)c(OC)c(OC)c3)cs2)cc1OCC [Example 11]
124 to 125.5 °C	CCOc1ccc(-c2nc(/C=C/C(=O)c3ccc(C)cc3)cs2)cc1OCC [Example 26]

Continued, molecule first:

SMILES	melting point
COc1ccc(-c2nc(CC(=O)Cc3ccc(OC(C)=O)c(OC(C)=O)c3)cs2)cc1OC [Example 242, 3-[2-(3,4-dimethoxyphenyl)thiazole-4-yl]-1-(3,4-diacetoxyphenyl)propanone]	128 to 128.5 °C
CCOc1cc(-c2nc(/C=C/C(=O)c3cc(OC)ccc3OC)cs2)ccc1OC [Example 40]	79 to 82 °C
CCOc1ccc(-c2nc(/C=C/C(=O)c3ccc(OC(C)=O)c(OC(C)=O)c3)cs2)cc1OCC [Example 8]	139 to 140 °C
COc1ccc(-c2nc(CCC(=O)c3ccc(OC(C)=O)c(OC(C)=O)c3)cs2)cc1OC [Example 94]	128 to 128.5 °C
CCOc1ccc(-c2nc(/C=C/C(=O)c3ccccc3C(=O)OC)cs2)cc1OCC [Example 33]	132 to 133 °C
CCOc1ccc(-c2nc(/C=C/C(=O)c3ccc(NC(C)=O)cc3)cs2)cc1OCC [Example 28]	199.5 to 201.5 °C
CCOc1ccc(-c2nc(/C=C/C(=O)c3ccc(C#N)cc3)cs2)cc1OCC [Example 18]	164 to 167 °C
CCOc1ccc(-c2nc(/C=C/C(=O)c3ccc([N+](=O)[O-])cc3)cs2)cc1OCC [Example 32]	125 to 127 °C
CCOc1ccc(-c2nc(/C=C/C(=O)c3ccc(O)c(C(=O)OC)c3)cs2)cc1OCC [Example 20]	161.3 to 162.8 °C
COc1ccc(-c2nc(/C=C/C(=O)c3cc(C(C)(C)C)c(O)c(C(C)(C)C)c3)cs2)cc1OC [Example 22]	228 to 230 °C
CCOc1ccc(-c2nc(/C=C/C(=O)c3ccc(N)cc3)cs2)cc1OCC [Example 30]	148 to 150 °C
CCOc1ccc(-c2nc(CCC(=O)c3ccccc3O)cs2)cc1OCC [Example 98]	113.7 to 114.9 °C
CCOc1ccc(-c2nc(CCC(=O)c3nccs3)cs2)cc1OCC [Example 90, 3-[2-(3,4-diethoxyphenyl)thiazole-4-yl]-1-thiazole-2-yl-1-propanone]	93.1 to 94.4 °C
CCOc1ccc(-c2nc(/C=C/C(=O)c3ccccc3)cs2)cc1OCC [Example 14]	129 to 130 °C
CCOc1ccc(-c2nc(/C=C/C(=O)c3ccc(Cl)c(Cl)c3)cs2)cc1OCC [Example 29]	138 to 139 °C
CCOc1ccc(-c2nc(/C=C/C(=O)c3ccc(O)cc3)cs2)cc1OCC [Example 10]	133 to 134 °C
CCOc1ccc(-c2nc(/C=C/C(=O)c3c(O)cc(O)cc3O)cs2)cc1OCC [Example 9]	188 to 189 °C
CCOc1ccc(-c2nc(CCC(=O)c3cc(Cl)ccc3OC)cs2)cc1OCC [Example 108]	90.2 to 92 °C
CCOc1ccc(-c2nc(CCC(=O)c3ccccc3F)cs2)cc1OCC [Example 101]	82.5 to 83.5 °C
CCOc1ccc(-c2nc(CCC(=O)c3ccc(O)c(O)c3)cs2)cc1OCC (as salt: hydrochloride) [Example 92]	153.2 to 153.8 °C
CCOc1ccc(-c2nc(/C=C/C(=O)c3cccc([N+](=O)[O-])c3)cs2)cc1OCC [Example 24]	125 to 126 °C
CCOc1ccc(CC(=O)Cc2csc(-c3ccc(OC)c(OC)c3)n2)cc1OCC [Example 243, 3-[2-(3,4-dimethoxyphenyl)thiazole-4-yl]-1-(3,4-diethoxyphenyl)propanone]	141.3 to 142.4 °C
CCOc1ccc(-c2nc(CCC(=O)c3ccccc3C(=O)OC)cs2)cc1OCC [Example 240, methyl 2-{3-[2-(3,4-diethoxyphenyl)thiazole-4-yl]propionyl}benzoate]	91.7 to 92.9 °C
CCOc1ccc(-c2nc(/C=C/C(=O)c3ccc(C(=O)OC)cc3)cs2)cc1OCC [Example 17]	150 to 151 °C
CCOc1ccc(-c2nc(/C=C/C(=O)c3ccc(Cl)cc3)cs2)cc1OCC [Example 21]	131 to 133 °C
COc1ccc(-c2nc(/C=C/C(=O)c3ccc(O)c(O)c3)cs2)cc1OC (as salt: hydrochloride) [Example 7]	162 to 165 °C
